# Laboratory results as given in US20090215895A1, “Therapeutic and carrier molecules” (PEPLIN BIOLIPIDS PTY LTD, priority 2004, published 2009).
# Assays:
# E-selectin = test: Effect of lipoxygenase/cyclooxygenase inhibitors and antioxidants on suppression of E-selectin expression by β-oxa-23:4n-6; assay type: cell-based, human; conditions: HUVEC pre-treated 15 min with inhibitor, then 20 μmol/l β-oxa-23:4n-6 60 min, TNF-α 4 h
# Experimental: FIG. 16 is a representation showing the effects of lipoxygenase/cyclooxygenase inhibitors and antioxidants on the modulation of E-selectin expression on HUVEC by β-oxa-23:4n-6. HUVEC were pre-treated with NDGA, baicalein, MK886, indomethacin, Vitamin E, or diluent (control) for 15 min. The cells were then further incubated with 20 μmol/l β-oxa-23:4n-6 or diluent (control) for 60 min followed by TNF-α (125 U/200 μl medium) for 4 hr and the expression of E-selectin adhesion molecule was determined. The results are expressed as % inhibition of the suppressive effect of β-oxa-23:4n-6 and represent the mean±SEM of three separate experiments each performed in quadruplicate. * p<0.01, for significant differences between pre-treatment with inhibitor and corresponding control (one-way analysis of variance followed by the Dunnett test for multiple comparisons).
# Confluent second-passage HUVEC in 96-well tissue culture plates were pre-treated with 10 μmol/l NDGA (non-selective lipoxygenase inhibitor); 10 μmol/l baicalein (a specific 12-lipoxygenase inhibitor); 500 nM MK886 (an inhibitor of the 5-lipoxygenase activating protein), […] indomethacin (a cyclooxygenase inhibitor); 10 μmol/l Vitamin E (an antioxidant); or diluent (control) for 15 min. The cells were then further incubated with 20 μmol/l β-oxa-23:4n-6 or diluent (control) for 60 min followed by TNF-α (125 U) for 4 h. The expression of E-selectin adhesion molecule was determined by ELISA. While none of the inhibitors/antioxidants affected the ability of TNF to enhance E-selectin expression on HUVEC, the ability of β-oxa 23:4n-6 to suppress the action of TNF was reduced when the cells were pre-treated with either NDGA or baicalein but not with indomethacin, Vitamin E or MK886 (FIG. 16).
# [1] = Formalin-induced pain test (hind paw licking time); assay type: in vivo; conditions: 30 min prior to formalin, mean of 5 animals
# Experimental: Investigations of the effects of PT2 on pain induced by phenylquinolic acid (PQ writhing) and formalin have been made. In both the PQ writhing test (FIG. 3) and the formalin algesia test (FIG. 4), PT2 administered by intraperitoneal inoculation reduced pain and compared favourably with pain reduction by aspirin (oral, 100 mg/kg). In these tests, the EPUFA was administered 30 min before the pain stimulus and effects recorded over the following 20 min.
# Investigations of PT2 in the formalin-induced analgesia model looking specifically at the biphasic response have also been undertaken and are shown in Table 1. It is well documented that in this model, aspirin suppresses only pain related to the inflammatory process (15-20 mins post-administration of formalin), while morphine suppresses pain in both phases of the response (0-5 min and 15-20 min).
# Compounds were administered intraperationedly (ip) 30 min prior to the administration of formalin (0.02 ml, 1% solution) via subplantar injection into the right hind paw. Reduction of the induced hind paw licking time recorded during the following 0-5 min period (Phase I response) or 15-20 min period (Phase II response) was determined. The data in Table 1 are the mean responses of 5 animals in each group.
# PKC isozyme β2 = biological target: T1, PKC isozyme β2 (Homo sapiens, UniProt P05771); test: PMA-induced PKC translocation in HL-60 cells (Western blot); assay type: cell-based; design: key: +++: strong inhibition of PKC activation; −: no inhibition of PKC activation; conditions: 20 μM, 60 min
# T1 construct: endogenous in cells; host or cells: HL-60
# T1 sequence (P05771 1-673 isoform P05771-2): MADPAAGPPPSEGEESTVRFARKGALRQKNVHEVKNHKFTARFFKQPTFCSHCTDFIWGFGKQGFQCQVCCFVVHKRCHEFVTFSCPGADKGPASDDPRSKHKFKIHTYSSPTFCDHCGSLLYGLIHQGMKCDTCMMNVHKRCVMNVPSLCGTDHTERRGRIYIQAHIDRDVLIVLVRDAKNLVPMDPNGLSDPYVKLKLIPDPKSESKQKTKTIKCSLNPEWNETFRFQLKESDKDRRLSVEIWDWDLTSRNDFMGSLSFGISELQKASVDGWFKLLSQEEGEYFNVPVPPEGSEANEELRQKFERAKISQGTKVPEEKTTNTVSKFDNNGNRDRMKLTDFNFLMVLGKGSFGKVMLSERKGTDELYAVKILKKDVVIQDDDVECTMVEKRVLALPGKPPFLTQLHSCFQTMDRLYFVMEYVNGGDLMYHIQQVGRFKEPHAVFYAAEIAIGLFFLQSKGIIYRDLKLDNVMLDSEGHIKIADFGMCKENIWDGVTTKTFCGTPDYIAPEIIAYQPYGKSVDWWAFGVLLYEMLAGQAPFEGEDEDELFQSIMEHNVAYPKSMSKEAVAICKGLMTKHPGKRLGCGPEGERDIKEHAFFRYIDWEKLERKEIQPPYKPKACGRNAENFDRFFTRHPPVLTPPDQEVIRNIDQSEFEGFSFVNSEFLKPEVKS
# Experimental: (§1) The effects of nitroanalogs of PUFAs on PKC activation were determined. Lx compounds at a concentration of 20 μM were incubated with the HL-60 cell line (final condition 10^6 cells/ml) for 60 min. PKC activation was then attempted to be induced by PMA. PKC enzyme translocation was quantitated by Western blot.
# PKC isozyme β1 = biological target: T2, PKC isozyme β1 (Homo sapiens, UniProt P05771); test: as above; assay type: cell-based; design: key: +++: strong inhibition of PKC activation; −: no inhibition of PKC activation; conditions: 20 μM, 60 min
# T2 construct: endogenous in cells; host or cells: HL-60
# T2 sequence (P05771 whole entry): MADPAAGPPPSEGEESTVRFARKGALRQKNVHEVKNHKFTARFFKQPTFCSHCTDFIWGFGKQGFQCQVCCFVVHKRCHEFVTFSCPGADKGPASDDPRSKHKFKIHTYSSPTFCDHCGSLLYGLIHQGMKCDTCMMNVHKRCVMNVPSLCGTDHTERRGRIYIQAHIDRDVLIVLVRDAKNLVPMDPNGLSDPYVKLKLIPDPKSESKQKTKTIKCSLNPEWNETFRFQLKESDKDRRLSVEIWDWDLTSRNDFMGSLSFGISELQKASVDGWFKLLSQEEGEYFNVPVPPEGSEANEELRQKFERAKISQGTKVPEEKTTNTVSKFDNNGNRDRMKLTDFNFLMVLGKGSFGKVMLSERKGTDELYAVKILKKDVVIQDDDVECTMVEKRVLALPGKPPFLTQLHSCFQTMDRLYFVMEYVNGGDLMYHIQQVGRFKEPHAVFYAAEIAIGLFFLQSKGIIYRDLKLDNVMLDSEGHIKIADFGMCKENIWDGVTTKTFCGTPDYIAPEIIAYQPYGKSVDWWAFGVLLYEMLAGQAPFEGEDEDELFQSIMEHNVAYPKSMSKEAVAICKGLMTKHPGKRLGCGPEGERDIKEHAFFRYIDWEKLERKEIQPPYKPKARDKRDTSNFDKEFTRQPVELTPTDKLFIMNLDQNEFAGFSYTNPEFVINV
# Experimental: as §1
# PKC isozyme ε = biological target: T3, PKC isozyme ε (Homo sapiens, UniProt Q02156); test: as above; assay type: cell-based; design: key: +++: strong inhibition of PKC activation; −: no inhibition of PKC activation; conditions: 20 μM, 60 min
# T3 construct: endogenous in cells; host or cells: HL-60
# T3 sequence (Q02156 1-737): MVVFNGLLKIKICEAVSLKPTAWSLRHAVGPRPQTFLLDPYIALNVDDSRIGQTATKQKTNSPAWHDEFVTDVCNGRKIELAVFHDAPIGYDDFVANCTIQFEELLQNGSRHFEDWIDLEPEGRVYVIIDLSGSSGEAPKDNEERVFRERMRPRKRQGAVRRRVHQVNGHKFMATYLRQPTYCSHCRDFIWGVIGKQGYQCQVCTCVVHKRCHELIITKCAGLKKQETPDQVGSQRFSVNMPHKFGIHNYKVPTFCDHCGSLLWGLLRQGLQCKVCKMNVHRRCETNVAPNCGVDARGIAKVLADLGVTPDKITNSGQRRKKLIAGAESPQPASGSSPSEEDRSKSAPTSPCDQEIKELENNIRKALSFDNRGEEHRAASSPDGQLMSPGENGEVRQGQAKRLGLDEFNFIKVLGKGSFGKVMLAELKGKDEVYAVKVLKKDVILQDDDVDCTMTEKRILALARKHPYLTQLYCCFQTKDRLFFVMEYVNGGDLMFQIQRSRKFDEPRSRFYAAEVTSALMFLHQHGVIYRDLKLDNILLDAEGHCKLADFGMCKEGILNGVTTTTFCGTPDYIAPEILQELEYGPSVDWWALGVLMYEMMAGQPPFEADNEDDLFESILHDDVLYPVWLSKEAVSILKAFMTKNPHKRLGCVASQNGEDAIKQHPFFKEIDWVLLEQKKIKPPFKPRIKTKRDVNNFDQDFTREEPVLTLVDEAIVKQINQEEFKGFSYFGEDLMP
# Experimental: as §1
# PKC isozyme δ = biological target: T4, PKC isozyme δ (Homo sapiens, UniProt Q05655); test: as above; assay type: cell-based; design: key: +++: strong inhibition of PKC activation; −: no inhibition of PKC activation; conditions: 20 μM, 60 min
# T4 construct: endogenous in cells; host or cells: HL-60
# T4 sequence (Q05655 whole entry): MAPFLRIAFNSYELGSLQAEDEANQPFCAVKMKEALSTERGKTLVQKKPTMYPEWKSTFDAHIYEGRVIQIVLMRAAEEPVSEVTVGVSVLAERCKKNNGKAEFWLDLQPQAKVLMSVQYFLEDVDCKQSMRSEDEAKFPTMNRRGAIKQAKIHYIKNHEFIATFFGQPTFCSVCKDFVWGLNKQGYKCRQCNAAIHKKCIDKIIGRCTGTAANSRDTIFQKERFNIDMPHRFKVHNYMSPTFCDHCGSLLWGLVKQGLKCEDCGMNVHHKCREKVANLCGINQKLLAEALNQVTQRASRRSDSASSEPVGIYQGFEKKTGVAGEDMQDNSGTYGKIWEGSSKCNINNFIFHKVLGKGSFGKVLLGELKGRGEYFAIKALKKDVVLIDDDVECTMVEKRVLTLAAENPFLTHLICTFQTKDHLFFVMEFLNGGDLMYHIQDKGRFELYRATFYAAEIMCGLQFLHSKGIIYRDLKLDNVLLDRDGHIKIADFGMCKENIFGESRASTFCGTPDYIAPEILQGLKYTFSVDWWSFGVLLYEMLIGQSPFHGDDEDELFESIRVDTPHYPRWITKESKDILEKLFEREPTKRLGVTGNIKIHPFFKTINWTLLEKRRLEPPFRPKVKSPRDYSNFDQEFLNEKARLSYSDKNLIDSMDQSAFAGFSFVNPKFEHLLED
# Experimental: as §1
# PKC isozyme α = biological target: T5, PKC isozyme α (Homo sapiens, UniProt P17252); test: as above; assay type: cell-based; design: key: +++: strong inhibition of PKC activation; −: no inhibition of PKC activation; conditions: 20 μM, 60 min
# T5 construct: endogenous in cells; host or cells: HL-60
# Experimental: as §1
# HUVEC = test: Agonist-enhanced neutrophil adherence to HUVEC; assay type: cell-based, human; conditions: 20 μmol/l, 1 hr pre-treatment, TNF 4 hr
# Experimental: FIG. 11 is a representation showing effect of β-oxa; β-thia and natural PUFA on TNF-enhanced neutrophil adherence to HUVEC. HUVEC were pre-treated with the fatty acids (20 μmol/l) for 60 min at 37° C. before being stimulated with TNF (125 U/200 μl medium) for 4 hr at 37° C. The cells were then co-incubated with neutrophils (5×10^5 cells/well) at 37° C. for 30 min and the degree of neutrophil adherence quantitated. The results are expressed as % of control and represent the mean±SEM of three separate experiments each performed in triplicate. * p<0.05, ***p<0.001, for significant differences between pre-treatment with fatty acid and control (one-way analysis of variance followed by the Dunnett test for multiple comparisons).
# Adhesion of neutrophils, prepared by the rapid-single-step method (Ferrante et al, J. Immun. Methods 36:109-117, 1980), to HUVEC isolated from umbilical cords was carried out essentially as described (Huang et al, 1997 supra).
# The magnitude of the suppressive effect of -MP3 was dependent on-pre-treatment time and concentration with significant effects observed with a pre-treatment time of 1 hr and a concentration of ≧5 μmol/l.
compound,measurement,setting,value
COc1ccc2c(c1)c(CC(=O)O)c(C)n2C(=O)c1ccc(Cl)cc1 [indomethacin],Effect on ability of β-oxa 23:4n-6 to suppress TNF-induced E-selectin expression,E-selectin,not
"CC(=O)Oc1ccccc1C(=O)O [Aspirin, reference compound]","% inhibition of pain response, Phase I (0-5 mins)",[1]; 300 mg/kg ip,30%
same,"% inhibition of pain response, Phase II (15-20 mins)",[1]; 300 mg/kg ip,91%
CC(C)c1ccc2c(c1)c(SC(C)(C)C)c(CC(C)(C)C(=O)O)n2Cc1ccc(Cl)cc1 [MK886],Effect on ability of β-oxa 23:4n-6 to suppress TNF-induced E-selectin expression,E-selectin,not
"CN1CC[C@]23c4c5ccc(O)c4O[C@H]2[C@@H](O)C=C[C@H]3[C@H]1C5 [Morphine, reference compound]","% inhibition of pain response, Phase I (0-5 mins)",[1]; 10 mg/kg ip,85%
same,"% inhibition of pain response, Phase II (15-20 mins)",[1]; 10 mg/kg ip,100%
CCCCC/C=C\C/C=C\C/C=C\C/C=C\CCCC[N+](=O)[O-] [Lx4],"Inhibition of PKC activation, isozyme β2",PKC isozyme β2,+++
same,"Inhibition of PKC activation, isozyme β1",PKC isozyme β1,+++
same,"Inhibition of PKC activation, isozyme ε",PKC isozyme ε,−
same,"Inhibition of PKC activation, isozyme δ",PKC isozyme δ,+++
Vitamin E,Effect on ability of β-oxa 23:4n-6 to suppress TNF-induced E-selectin expression,E-selectin,not
O=c1cc(-c2ccccc2)oc2cc(O)c(O)c(O)c12 [baicalein],Effect on ability of β-oxa 23:4n-6 to suppress TNF-induced E-selectin expression,E-selectin,reduced
CCCCCCCCCCCCCCCCCC[N+](=O)[O-] [Lx1],"Inhibition of PKC activation, isozyme β2",PKC isozyme β2,−
same,"Inhibition of PKC activation, isozyme ε",PKC isozyme ε,−
same,"Inhibition of PKC activation, isozyme α",PKC isozyme α,−
same,"Inhibition of PKC activation, isozyme δ",PKC isozyme δ,−
CC/C=C\C/C=C\C/C=C\CCCCCCCCSCC(=O)O [β-thia-21:3n-3],Inhibition of TNF-α-enhanced neutrophil adhesion to HUVEC,HUVEC,inhibited their ability to be stimulated
CCCCC/C=C\C/C=C\C/C=C\C/C=C\CCCCSCC(=O)O [β-thia-23:4n-6],Inhibition of TNF-α-enhanced neutrophil adhesion to HUVEC,HUVEC,inhibited their ability to be stimulated
same,Inhibition of TNF-α-enhanced neutrophil adhesion to HUVEC,HUVEC; listed as β-thia 23:4n-6,less active than this β-oxa compound
CCCCC/C=C\C/C=C\C/C=C\CCCCC[N+](=O)[O-] [Lx3],"Inhibition of PKC activation, isozyme β2",PKC isozyme β2,+++
same,"Inhibition of PKC activation, isozyme β1",PKC isozyme β1,−
same,"Inhibition of PKC activation, isozyme ε",PKC isozyme ε,−
same,"Inhibition of PKC activation, isozyme α",PKC isozyme α,−
same,"Inhibition of PKC activation, isozyme δ",PKC isozyme δ,−
"CC(Cc1ccc(O)c(O)c1)C(C)Cc1ccc(O)c(O)c1 (stereo not shown) [NDGA, nordihydroguairetic acid]",Effect on ability of β-oxa 23:4n-6 to suppress TNF-induced E-selectin expression,E-selectin,reduced
"CCCCC/C=C\C/C=C\CCCCCCCC(=O)O [18:2n-6, octadecadienoic acid, reference compound]",Inhibition of TNF-α-enhanced neutrophil adhesion to HUVEC,HUVEC,no significant effect
CCCCC/C=C\C/C=C\C/C=C\CCCCCSCC(=O)O [β-thia-21:3n-6],Inhibition of TNF-α-enhanced neutrophil adhesion to HUVEC,HUVEC,inhibited their ability to be stimulated
CC/C=C\C/C=C\C/C=C\C/C=C\C/C=C\C/C=C\CCC[N+](=O)[O-] [Lx5],"Inhibition of PKC activation, isozyme β2",PKC isozyme β2,−
same,"Inhibition of PKC activation, isozyme β1",PKC isozyme β1,−
same,"Inhibition of PKC activation, isozyme α",PKC isozyme α,−
same,"Inhibition of PKC activation, isozyme δ",PKC isozyme δ,−
CCCCC/C=C\C/C=C\C/C=C\CCCCCOCC(=O)O [β-oxa-21:3n-6],Inhibition of TNF-α-enhanced neutrophil adhesion to HUVEC,HUVEC,inhibited their ability to be stimulated
CC/C=C\C/C=C\C/C=C\CCCCCCCC[N+](=O)[O-] [Lx2],"Inhibition of PKC activation, isozyme β2",PKC isozyme β2,+++
same,"Inhibition of PKC activation, isozyme β1",PKC isozyme β1,−
same,"Inhibition of PKC activation, isozyme ε",PKC isozyme ε,−
same,"Inhibition of PKC activation, isozyme α",PKC isozyme α,−
same,"Inhibition of PKC activation, isozyme δ",PKC isozyme δ,−
